Publication PMC11555673, “Modulators of the Hop-HSP90 Protein–Protein Interaction Disrupt KSHV Lytic Replication” (ACS Infectious Diseases, 2024)
Where no end group is shown, it is not given here. [ ]: non-standard residue; d: D form. SulfoLink = iodoacetyl-modified agarose resin; Mpa = O=C(O)CCS

What was measured:
[1] = test system: CDK4; experiment: Western blot of HSP90 client CDK4 in reactivated TREx-BCBL-1-RTA cells; type: cell-based; conditions: Figures 7C and S4
Method: The remaining TREx-BCBL-1-RTA cells (after cell viability assay) were harvested and washed twice with ice-cold PBS (pH 7.4). […] Bicinchoninic acid (BCA) protein quantification assay was used to determine the concentration of protein in the lysates. An equal amount of protein samples was denatured in Laemmli SDS loading buffer at 95 °C for 5 min. An equal volume of the denatured protein samples was resolved by SDS-PAGE and transferred to nitrocellulose membranes using the complete Bio-Rad Trans-Blot Turbo Transfer System (Bio-Rad, California). […] The membranes were incubated in an appropriate primary antibody. The primary antibodies used in this study were mouse anti-ORF57 (207.6) monoclonal antibody (Santa Cruz Biotechnology, sc-135746), mouse […]) monoclonal antibody (Novus Biologicals, NB200-167SS), rabbit anti-Hop monoclonal antibody (Abcam, ab126724), mouse anti-Hsp90α/β (F-8) monoclonal antibody (Santa Cruz, sc-13119), anti-CDK4 antibody [EPR4513-32-7] (Abcam, Ab108357), rabbit anti-β-actin [EPR2124] monoclonal antibody (Abcam, Ab213262), and HRP-conjugated anti-GAPDH antibody (EPR6256) (Abcam, ab185059). The membranes were washed three times using TBST and incubated in an appropriate secondary antibody. […]

[2] = test system: KSHV-infected TREx-BCBL-1-RTA cells
[3] = test system: KSHV ORF57
[4] = test system: KSHV vIRF3; type: cell-based
[5] = test system: HSP90; experiment: Pulldown from HeLa cell lysates with resin-supported peptides, Western blot for HSP90; type: binding; conditions: full-length Hop IP experiments
[6] = test system: Hop; experiment: Pulldown from HeLa cell lysates with resin-supported peptides, Western blot for Hop; type: binding; conditions: incubated overnight with resin-supported peptide, densitometry
[7] = test system: HopTPR2A–HSP90CTD PPI; experiment: ELISA-based solid-phase HopTPR2A–HSP90CTD PPI inhibitory assay; type: biochemical; conditions: SAR, Figures 2 and 3; peptide 1 as control

With “CPP-MAAVD (disulfide) [CPP-19, MAAVD containing control tethered to the Arg-8 CPP via disulfide linkage]” the “Levels of HSP90 client CDK4” value [1] was “same effect was not seen”, the Cytotoxicity [2] was “negligible cytotoxicity” and the “ORF57 expression, dose-dependent analysis” value [3] was “no effect on either”. The “vIRF3 expression, dose-dependent analysis” value [4] was “no effect on either”.

For “IP-5: weakly active peptide 5 immobilized on SulfoLink resin, control (SulfoLink-[Mpa]MEDVE)”, the “HSP90 in elution after pulldown” value [5] was “not observed” and the “Hop in elution after pulldown” value [6] was “only trace amounts of Hop”.

For LWWPD [Peptide 12], the “HopTPR2A–HSP90CTD PPI disruption activity (in words)” value [7] was “weak to moderate activity”.
